Consider three compounds from ChEMBL document CHEMBL5247654 (J Med Chem, 2023).

Structures are written as SMILES. Activity calls are given as the source filed them. The rule behind the calls is not given here.

The target of test [1] is T1, Dual specificity tyrosine-phosphorylation-regulated kinase 1A (Homo sapiens, UniProt Q13627). In words: Inhibition of human C-terminal his tagged DYRK1A (26 to 490 residues) transfected in HEK293T cells assessed as inhibition of cyclin D1 phosphorylation at 10 uM incubated for 3 hrs by Western blot analysis. Type of test: cell-based.
Test [2] has as its target T2, Glycogen synthase kinase-3 beta (Homo sapiens, UniProt P49841). Description: Inhibition of human C-terminal his tagged GSK3beta (26 to 383 residues) transfected in HEK293T cells assessed as inhibition of cyclin D1 phosphorylation at 10 uM incubated for 3 hrs by Western blot analysis. In kind it is cell-based. For orientation: A western blot detects proteins with antibodies after separation by electrophoresis.
Target sequence in this assay (P49841 whole entry, looked up, the tested form may be a part): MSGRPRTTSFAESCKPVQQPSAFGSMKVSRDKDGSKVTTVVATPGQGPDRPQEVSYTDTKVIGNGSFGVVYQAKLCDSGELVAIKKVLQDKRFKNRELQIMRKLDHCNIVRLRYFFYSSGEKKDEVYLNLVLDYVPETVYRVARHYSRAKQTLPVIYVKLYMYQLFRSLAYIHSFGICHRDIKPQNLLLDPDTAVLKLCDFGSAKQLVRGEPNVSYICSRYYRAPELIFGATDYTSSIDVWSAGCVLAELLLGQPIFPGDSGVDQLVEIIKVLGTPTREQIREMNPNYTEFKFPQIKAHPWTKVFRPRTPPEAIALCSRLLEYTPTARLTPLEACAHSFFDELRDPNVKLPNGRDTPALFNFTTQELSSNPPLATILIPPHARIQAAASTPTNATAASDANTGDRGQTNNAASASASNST

Test [3] addresses T2, Glycogen synthase kinase-3 beta. In words: Inhibition human C-terminal his tagged m-Cherry GSK3beta (26 to 383 residues) in HEK293T cells assessed as reversal of ionomycin stimulated NFAT cellular localization at 5 uM incubated for 3 hrs followed by ionomycin stimulation for 1 hr by Hoechst 33258 staining based fluorescence microscopic analysis. Type of test: cell-based. The note with it: time 4.0 hrs.
Target sequence in this assay (P49841 whole entry, looked up, the tested form may be a part): as above

The target is the same in test [4]. The note with it: dose 500.0 nM.
Target sequence in this assay (P49841 whole entry, looked up, the tested form may be a part): as above
The target of test [5] is T1, Dual specificity tyrosine-phosphorylation-regulated kinase 1A. Description: Binding affinity to human C-terminal his tagged DYRK1A (26 to 490 residues) expressed in Escherichia coli at 100 uM by radiometric analysis.
Test [6] shares this target. In words: Inhibition of human C-terminal his tagged DYRK1A (26 to 490 residues) expressed in Escherichia coli using DYRKtide (RRRFRPASPLRGPPK) as peptide substrate incubated for 1 hr in presence of ATP by cook activity assay.
In test [7] the target is T2, Glycogen synthase kinase-3 beta. In words: Inhibition of human C-terminal his tagged GSK3beta (26 to 383 residues) expressed in Escherichia coli using GYSI(YRRAAVPPSPSLSRHSSPHQ(pS)EDEEE) as peptide substrate incubated for 1 hr in presence of ATP by cook activity assay.
Target sequence in this assay (P49841 whole entry, the tested form may be a part): as the sequence (P49841 whole entry, looked up, the tested form may be a part) above
The target is the same in test [8]. Description: Stabilization of human C-terminal his tagged GSK3beta (26 to 383 residues) expressed in Escherichia coli assessed as change in melting temperature at 10 uM by SYPRO orange dye based thermal shift assay.
Target sequence in this assay (P49841 whole entry, looked up, the tested form may be a part): as the sequence (P49841 whole entry, looked up, the tested form may be a part) above

What is called inhibition is the change of the read-out against control, counted positive when it falls. `O=C(O)c1ccc2c(c1)nc(Nc1cccc(Cl)c1)c1ccncc12`: the inhibition in test [1] amounted to 100%; in test [2], 100%; in test [4], 50%. In addition, in test [3], the inhibition result is “Active”.

Regarding `O=C1Cc2c([nH]c3ccc(Br)cc23)-c2ncccc2N1` [AZAKENPAULLONE], the result in test [5] was inactive. For the same compound, the IC50 entry in test [6] is recorded as “Not Active”. Also, the inhibition result in test [1], in test [2] and in test [3] was “Active” throughout.

On to `COc1ccc2c(c1)[nH]c1c(C)nccc12` [HARMINE], for which the IC50 entry in test [7] is listed as “Not Active”. Besides, the Tm entry in test [8] was “inactive”. For the same compound, the inhibition result in test [1] and in test [2] was “Active” throughout.
